Laboratory results as given in patent US20210387978A1, “CYCLOBUTYL DIHYDROQUINOLINE SULFONAMIDE COMPOUNDS” (AMGEN INC., priority 2020, published 2021).

Target: T1, Human Nav1.7 (Homo sapiens, UniProt Q15858)
T1 construct: expressed in transfected cells; host or cells: Spiking HEK cells (without Kir2.1 transfection)
Assay: IonWorks Barracuda (IWB) automated patch clamp assay
Assay type: cell-based
Conditions: human Nav1.7 currents, HEK cells, population patch-clamp, state- and use-dependent voltage protocol; read-out: hNaV1.7 IWB-U IC50
Experimental: Ionaworks Barracuda […] Automated Patch Clamp Assay (Same Protocol for Both Human and Mouse)
Human Nav1.7 currents were recorded in population patch-clamp mode with the IWB automated electrophysiology system (Molecular Devices, LLC, Sunnyvale, Calif.). Spiking HEK cells (without Kir2.1 transfection) were cultured and prepared for recordings as previously described for IonWorks Quattro testing^1. The external solution consisted of the following (in mM): NaCl 140, KCl 5, CaCl2 2, MgCl2 1, HEPES 10, and glucose 11, pH 7.4, with N-methyl-D-glucamine at 320 mOsmol. […] From a holding potential of −110 mV, currents were elicited by a train of 26 depolarizations of 150 ms duration to −20 mV at a frequency of 5 Hz. Cells were then clamped to −20 mV for a period of 4 minutes in the presence of a single concentration of test compound. Following this compound incubation period, cells were clamped to −110 mV for three seconds to recover unbound channels and put through the same 26 pulse voltage protocol as above. Peak inward current during the 26th pulse to −20 mV in the presence of compound was divided by the peak inward current evoked by the 26th pulse to −20 mV in the absence of compound to determine percent inhibition. Concentration-response curves of percent inhibition as a function of concentration were generated to calculate IC50 values as described in Kornecook, T. J.; Yin, R.; Altmann, S.; et al. Pharmacologic Characterization of AMG8379, a Potent and Selective Small Molecule Sulfonamide Antagonist of the Voltage-Gated Sodium Channel NaV1. 7.
The potency of the compounds of the present invention were evaluated on human Nav1.7 channels using the above described IonWorks Barracuda automated electrophysiology platform that evaluates the ability of compounds to block sodium conductance through Nav1.7 channels. A voltage-protocol that prosecutes both state-dependent as well as use-dependent inhibition was used as these modes of action are thought to be more relevant for the native state of Nav1.7 channels in pain sensing neurons in vivo.

T1 sequence (Q15858 whole entry): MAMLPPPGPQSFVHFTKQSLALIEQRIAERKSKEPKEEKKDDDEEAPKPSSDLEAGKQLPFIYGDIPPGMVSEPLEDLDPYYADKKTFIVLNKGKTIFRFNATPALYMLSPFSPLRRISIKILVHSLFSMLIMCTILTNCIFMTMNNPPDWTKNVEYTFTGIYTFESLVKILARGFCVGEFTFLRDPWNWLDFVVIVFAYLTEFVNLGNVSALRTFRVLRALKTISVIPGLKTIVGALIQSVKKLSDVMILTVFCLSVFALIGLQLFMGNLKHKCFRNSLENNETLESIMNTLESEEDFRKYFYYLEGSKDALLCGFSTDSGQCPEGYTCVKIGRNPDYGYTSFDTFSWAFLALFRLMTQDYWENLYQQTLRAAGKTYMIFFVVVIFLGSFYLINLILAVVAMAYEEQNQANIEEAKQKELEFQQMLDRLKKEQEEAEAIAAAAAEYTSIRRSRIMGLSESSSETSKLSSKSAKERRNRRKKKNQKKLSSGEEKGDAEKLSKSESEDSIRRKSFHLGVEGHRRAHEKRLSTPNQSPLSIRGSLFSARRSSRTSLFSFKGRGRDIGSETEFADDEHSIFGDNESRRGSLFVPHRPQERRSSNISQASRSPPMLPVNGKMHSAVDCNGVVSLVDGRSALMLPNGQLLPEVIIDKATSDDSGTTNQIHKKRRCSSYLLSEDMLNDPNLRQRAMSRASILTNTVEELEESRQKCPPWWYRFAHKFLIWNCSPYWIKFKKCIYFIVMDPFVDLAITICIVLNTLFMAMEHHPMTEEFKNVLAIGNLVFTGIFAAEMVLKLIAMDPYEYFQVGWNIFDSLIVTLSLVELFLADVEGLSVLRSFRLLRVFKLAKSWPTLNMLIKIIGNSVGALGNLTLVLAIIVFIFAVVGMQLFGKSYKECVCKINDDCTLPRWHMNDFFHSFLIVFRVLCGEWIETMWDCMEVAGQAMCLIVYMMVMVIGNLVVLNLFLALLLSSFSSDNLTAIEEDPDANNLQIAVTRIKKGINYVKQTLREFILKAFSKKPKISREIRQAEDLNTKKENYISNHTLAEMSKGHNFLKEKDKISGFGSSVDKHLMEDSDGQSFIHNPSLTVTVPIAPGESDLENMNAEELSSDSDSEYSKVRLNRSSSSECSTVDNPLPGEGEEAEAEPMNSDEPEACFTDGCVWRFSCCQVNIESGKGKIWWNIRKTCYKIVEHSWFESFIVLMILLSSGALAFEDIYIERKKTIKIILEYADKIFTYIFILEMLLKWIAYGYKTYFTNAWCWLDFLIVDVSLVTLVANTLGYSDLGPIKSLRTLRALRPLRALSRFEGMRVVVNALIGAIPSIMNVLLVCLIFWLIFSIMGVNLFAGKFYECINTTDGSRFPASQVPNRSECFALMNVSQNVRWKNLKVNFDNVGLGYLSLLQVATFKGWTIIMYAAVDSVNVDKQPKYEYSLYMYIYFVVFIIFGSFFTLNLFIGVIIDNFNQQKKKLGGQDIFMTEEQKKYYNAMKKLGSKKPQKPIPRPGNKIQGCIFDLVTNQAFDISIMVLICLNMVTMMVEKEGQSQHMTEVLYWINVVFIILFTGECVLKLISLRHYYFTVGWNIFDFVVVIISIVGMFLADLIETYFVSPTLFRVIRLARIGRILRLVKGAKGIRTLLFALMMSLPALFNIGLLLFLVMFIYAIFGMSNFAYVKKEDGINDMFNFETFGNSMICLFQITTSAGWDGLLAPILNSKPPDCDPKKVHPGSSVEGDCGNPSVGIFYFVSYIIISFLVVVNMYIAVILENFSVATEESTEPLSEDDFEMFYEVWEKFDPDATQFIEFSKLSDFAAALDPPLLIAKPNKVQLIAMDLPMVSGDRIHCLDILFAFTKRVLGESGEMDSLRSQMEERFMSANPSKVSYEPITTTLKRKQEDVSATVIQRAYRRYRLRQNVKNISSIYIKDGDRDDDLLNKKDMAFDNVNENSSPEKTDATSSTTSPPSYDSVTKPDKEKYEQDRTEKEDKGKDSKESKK

SMILES | IC50
COc1cc(C2CC(F)(C(F)(F)F)C2)c(F)cc1-n1c(=O)ccc2cc(S(=O)(=O)Nc3ccon3)ccc21 (atropisomer, axis not shown; (P)) [Example 5, (P)-1-(5-fluoro-4-(3-fluoro-3-(trifluoromethyl)cyclobutyl)-2-methoxyphenyl)-N-(isoxazol-3-yl)-2-oxo-1,2-dihydroquinoline-6-sulfonamide] | 0.002 µM
COc1cc([C@H]2C[C@@](F)(C(F)(F)F)C2)c(F)cc1-n1c(=O)ccc2cc(S(=O)(=O)Nc3ccon3)ccc21 (atropisomer, axis not shown; (P)) [Example 8, trans-(P)-1-(5-fluoro-4-(3-fluoro-3-(trifluoromethyl)cyclobutyl)-2-methoxyphenyl)-N-(isoxazol-3-yl)-2-oxo-1,2-dihydroquinoline-6-sulfonamide] | 0.005 µM
COc1cc([C@H]2C[C@](F)(C(F)(F)F)C2)c(F)cc1-n1c(=O)ccc2cc(S(=O)(=O)Nc3ccon3)ccc21 (atropisomer, axis not shown; (P)) [Example 9, cis-(P)-1-(5-fluoro-4-(3-fluoro-3-(trifluoromethyl)cyclobutyl)-2-methoxyphenyl)-N-(isoxazol-3-yl)-2-oxo-1,2-dihydroquinoline-6-sulfonamide] | 0.002 µM
COc1cc([C@H]2C[C@](F)(C(F)(F)F)C2)c(Cl)cc1-n1c(=O)ccc2cc(S(=O)(=O)Nc3ccon3)ccc21 (atropisomer, axis not shown; (P)) [Example 10, cis-(P)-1-(5-chloro-4-(3-fluoro-3-(trifluoromethyl)cyclobutyl)-2-methoxyphenyl)-N-(isoxazol-3-yl)-2-oxo-1,2-dihydroquinoline-6-sulfonamide] | 0.008 µM
COc1cc([C@H]2C[C@@](F)(C(F)(F)F)C2)c(Cl)cc1-n1c(=O)ccc2cc(S(=O)(=O)Nc3ccon3)ccc21 (atropisomer, axis not shown; (P)) [Example 11, trans-(P)-1-(5-chloro-4-(3-fluoro-3-(trifluoromethyl)cyclobutyl)-2-methoxyphenyl)-N-(isoxazol-3-yl)-2-oxo-1,2-dihydroquinoline-6-sulfonamide] | 0.002 µM
COc1cc([C@H]2C[C@@H](C(F)(F)F)C2)c(Cl)cc1-n1c(=O)ccc2cc(S(=O)(=O)Nc3ncccn3)ccc21 (atropisomer, axis not shown; (P)) [Example 16, cis-(P)-1-(5-chloro-2-methoxy-4-(3-(trifluoromethyl)cyclobutyl)phenyl)-2-oxo-N-(pyrimidin-2-yl)-1,2-dihydroquinoline-6-sulfonamide] | 0.018 µM
COc1cc([C@H]2C[C@H](C(F)(F)F)C2)c(Cl)cc1-n1c(=O)ccc2cc(S(=O)(=O)Nc3ncccn3)ccc21 (atropisomer, axis not shown; (P)) [Example 17, trans-(P)-1-(5-chloro-2-methoxy-4-(3-(trifluoromethyl)cyclobutyl)phenyl)-2-oxo-N-(pyrimidin-2-yl)-1,2-dihydroquinoline-6-sulfonamide] | 0.015 µM
COc1cc(C2CCC2)c(Cl)cc1-n1c(=O)ccc2cc(S(=O)(=O)Nc3ncccn3)ccc21 (atropisomer, axis not shown; (P)) [Example 18, (P)-1-(5-chloro-4-cyclobutyl-2-methoxyphenyl)-2-oxo-N-(pyrimidin-2-yl)-1,2-dihydroquinoline-6-sulfonamide] | 0.022 µM
COc1cc([C@H]2C[C@H](C(F)(F)F)C2)c(Cl)cc1-n1c(=O)ccc2cc(S(=O)(=O)Nc3cccnn3)ccc21 (atropisomer, axis not shown; (P)) [Example 19, trans-(P)-1-(5-chloro-2-methoxy-4-(3-(trifluoromethyl)cyclobutyl)phenyl)-2-oxo-N-(pyridazin-3-yl)-1,2-dihydroquinoline-6-sulfonamide] | 0.015 µM
COc1cc(C2CCC2)c(F)cc1-n1c(=O)ccc2cc(S(=O)(=O)Nc3ncco3)ccc21 (atropisomer, axis not shown; (P)) [Example 24, (P)-1-(4-cyclobutyl-5-fluoro-2-methoxyphenyl)-N-(oxazol-2-yl)-2-oxo-1,2-dihydroquinoline-6-sulfonamide] | 0.013 µM
COc1cc(C2CCC2)c(C)cc1-n1c(=O)ccc2cc(S(=O)(=O)Nc3ncccn3)ccc21 (atropisomer, axis not shown; (P)) [Example 27, (P)-1-(4-Cyclobutyl-2-Methoxy-5-Methylphenyl)-2-Oxo-N-(Pyrimidin-2-Yl)-1,2-Dihydro Quinoline-6-Sulfonamide] | 0.104 µM
COc1cc(C2CCC2)c(F)cc1-n1c(=O)ccc2cc(S(=O)(=O)Nc3ncccn3)ccc21 (atropisomer, axis not shown; (P)) [Example 28, (P)-1-(4-cyclobutyl-5-fluoro-2-methoxyphenyl)-2-oxo-N-(pyrimidin-2-yl)-1,2-dihydroquinoline-6-sulfonamide] | 0.054 µM

Results, then the compound that gave them:

IC50 | SMILES
0.033 µM | COc1cc(C2CC(C(C)(C)C)C2)c(F)cc1-n1c(=O)ccc2cc(S(=O)(=O)Nc3ccon3)ccc21 (atropisomer, axis not shown; (P)) [Example 3, (P)-1-(4-(3-(tert-butyl)cyclobutyl)-5-fluoro-2-methoxyphenyl)-N-(isoxazol-3-yl)-2-oxo-1,2-dihydroquinoline-6-sulfonamide]
0.015 µM | COc1cc(C2CC(F)(F)C2)c(F)cc1-n1c(=O)ccc2cc(S(=O)(=O)Nc3ccon3)ccc21 (atropisomer, axis not shown; (P)) [Example 4, (P)-1-(4-(3,3-difluorocyclobutyl)-5-fluoro-2-methoxyphenyl)-N-(isoxazol-3-yl)-2-oxo-1,2-dihydroquinoline-6-sulfonamide]
0.016 µM | COc1cc(C2CCC2)c(F)cc1-n1c(=O)ccc2cc(S(=O)(=O)Nc3ccon3)ccc21 (atropisomer, axis not shown; (P)) [Example 14, (P)-1-(4-cyclobutyl-5-fluoro-2-methoxyphenyl)-N-(isoxazol-3-yl)-2-oxo-1,2-dihydroquinoline-6-sulfonamide]
0.012 µM | COc1cc([C@H]2C[C@H](C(F)(F)F)C2)c(C)cc1-n1c(=O)ccc2cc(S(=O)(=O)Nc3ccon3)ccc21 (atropisomer, axis not shown; (P)) [Example 20, trans-(P)—N-(isoxazol-3-yl)-1-(2-methoxy-5-methyl-4-(3-(trifluoromethyl)cyclobutyl)phenyl)-2-oxo-1,2-dihydroquinoline-6-sulfonamide]
0.012 µM | COc1cc(C2CCC2)c(Cl)cc1-n1c(=O)ccc2cc(S(=O)(=O)Nc3ccon3)ccc21 (atropisomer, axis not shown; (P)) [Example 21, (P)-1-(5-chloro-4-cyclobutyl-2-methoxyphenyl)-N-(isoxazol-3-yl)-2-oxo-1,2-dihydroquinoline-6-sulfonamide]
0.05 µM | COc1cc(C2CCC2)c(C)cc1-n1c(=O)ccc2cc(S(=O)(=O)Nc3ccon3)ccc21 (atropisomer, axis not shown; (P)) [Example 22, (P)-1-(4-cyclobutyl-2-methoxy-5-methylphenyl)-N-(isoxazol-3-yl)-2-oxo-1,2-dihydroquinoline-6-sulfonamide]
0.102 µM | COc1cc(C2CCC2)c(F)cc1-n1c(=O)ccc2cc(S(=O)(=O)Nc3cccnn3)ccc21 (atropisomer, axis not shown; (P)) [Example 23, (P)-1-(4-cyclobutyl-5-fluoro-2-methoxyphenyl)-2-oxo-N-(pyridazin-3-yl)-1,2-dihydroquinoline-6-sulfonamide]
0.037 µM | COc1cc(C2CCC2)ccc1-n1c(=O)ccc2cc(S(=O)(=O)Nc3ccon3)ccc21 (atropisomer, axis not shown; (P)) [Example 25, (P)-1-(4-cyclobutyl-2-methoxyphenyl)-N-(isoxazol-3-yl)-2-oxo-1,2-dihydroquinoline-6-sulfonamide]
0.08 µM | COc1cc(C2CCC2)ccc1-n1c(=O)ccc2cc(S(=O)(=O)Nc3ncccn3)ccc21 (atropisomer, axis not shown; (P)) [Example 26, (P)-1-(4-cyclobutyl-2-methoxyphenyl)-2-oxo-N-(pyrimidin-2-yl)-1,2-dihydroquinoline-6-sulfonamide]
0.037 µM | COc1cc(C2CCC2)ccc1-n1c(=O)ccc2cc(S(=O)(=O)Nc3ncco3)ccc21 (atropisomer, axis not shown; (P)) [Example 29, (P)-1-(4-cyclobutyl-2-methoxyphenyl)-N-(oxazol-2-yl)-2-oxo-1,2-dihydroquinoline-6-sulfonamide]
0.137 µM | COc1cc(C2CCC2)c(C)cc1-n1c(=O)ccc2cc(S(=O)(=O)Nc3cccnn3)ccc21 (atropisomer, axis not shown; (P)) [Example 30, (P)-1-(4-cyclobutyl-2-methoxy-5-methylphenyl)-2-oxo-N-(pyridazin-3-yl)-1,2-dihydroquinoline-6-sulfonamide]
